Patent US5208156A, “Esterase purified from serratia marcescens SR41 (FERM BP-No. 487)” (priority 1990, dated 1993)

Target: T1, Serratia marcescens Sr41 (FERM BP-No. 487) esterase, purified esterase of Example 2 (Serratia marcescens, UniProt Q59932)
T1 construct: 62 kDa by SDS-PAGE; N-terminus XIFSYKDLDENA
T1 sequence (Q59932 2-613): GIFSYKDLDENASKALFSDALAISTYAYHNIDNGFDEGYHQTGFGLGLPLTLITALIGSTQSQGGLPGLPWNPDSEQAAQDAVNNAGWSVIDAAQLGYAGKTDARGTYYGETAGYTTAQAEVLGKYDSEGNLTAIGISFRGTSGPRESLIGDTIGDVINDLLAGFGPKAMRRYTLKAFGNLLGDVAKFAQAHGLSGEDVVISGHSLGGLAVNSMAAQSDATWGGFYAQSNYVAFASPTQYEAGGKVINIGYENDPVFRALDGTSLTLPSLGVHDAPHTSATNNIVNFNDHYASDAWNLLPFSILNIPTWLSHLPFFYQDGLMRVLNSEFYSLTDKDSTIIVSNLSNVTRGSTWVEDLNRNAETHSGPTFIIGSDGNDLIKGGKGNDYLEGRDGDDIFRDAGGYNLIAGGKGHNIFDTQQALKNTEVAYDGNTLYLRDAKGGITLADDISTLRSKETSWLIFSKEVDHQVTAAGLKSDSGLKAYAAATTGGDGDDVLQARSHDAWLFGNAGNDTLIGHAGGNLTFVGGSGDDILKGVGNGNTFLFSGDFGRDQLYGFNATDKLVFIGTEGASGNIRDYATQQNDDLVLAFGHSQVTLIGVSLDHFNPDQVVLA
Assay: biochemical
Conditions: for Relative activity: 1 mM inhibitor added to enzyme solution, activity with no addition = 100, olive oil substrate, pH 8.0, 37° C.
Experimental: A mixture of 225 ml of 2% polyvinyl alcohol (Poval 117, manufactured by Kurare Co., Ltd.) and 75 ml of olive oil was emulsified by stirring at 14,500 rpm at 5°-10° C. for 10 minutes. 5.0 ml of the olive oil-emulsion thus-obtained and 4.0 ml of 0.25M Tris-HCl buffer (pH 8.0, containing 2.5 mM calcium chloride) were preincubated at 37° C. for 10 minutes. One ml of an enzyme solution was added thereto to initiate enzymatic reaction. After the mixture was incubated at 37° C. for 20 minutes, 20 ml of a mixture of acetone-ethanol (1:1) were added to the reaction mixture to stop the enzymatic reaction. The mixture was titrated with 0.05N sodium hydroxide solution by using phenolphthalein as the indicator. A blank solution was prepared in the same manner as above except that acetone-ethanol (1:1) is added to the substrate solution before addition of the enzyme solution. Said blank solution was titrated in the same manner as above. The amount of enzyme which liberated one μmole of fatty acid per minute was defined as one unit (U).
The effect of metal ions or known enzyme-inhibitors on the purified esterase obtained in Example 2 was investigated as follows: […]

Row | Compound | Inhibition of esterase activity | activity at 1000 µM (20 min, pH 8, read-out: Relative activity) | Relative activity (20 min)
1 | O=C(O)CN(CCN(CC(=O)O)CC(=O)O)CC(=O)O [Ethylenediaminetetraacetic acid] | completely inhibited | 0% | –
2 | O=S(=O)(F)Cc1ccccc1 [Phenylmethylsulfonyl fluoride] | – | – | 100%
3 | O=C(O)c1cc[c]([Hg][Cl])cc1 [p-Chloromercury benzoate] | – | – | 86%
